Data published in patent CN117899087A, “与g蛋白偶联型雌激素受体结合的治疗乳腺癌的中药提取物及其应用” (Wuxi Hospital of Traditional Chinese Medicine, priority 2024, dated 2024).
“Also recorded” adds a separate entry of the source.

Legend:
[1] = biological target: T1, GPER-1 overexpressing 293T cells [GPER-1过表达细胞, 293T细胞系] (Homo sapiens, UniProt Q99527); assay: UPLC-QTOF/MS screening of CGD components binding to GPER-1 overexpressing cells; conditions: GPER gene overexpressing cell line
T1 construct: expressed in transfected cells; host or cells: 293T (HEK-293T), lentiviral recombinant plasmid system
T1 sequence (Q99527 whole entry): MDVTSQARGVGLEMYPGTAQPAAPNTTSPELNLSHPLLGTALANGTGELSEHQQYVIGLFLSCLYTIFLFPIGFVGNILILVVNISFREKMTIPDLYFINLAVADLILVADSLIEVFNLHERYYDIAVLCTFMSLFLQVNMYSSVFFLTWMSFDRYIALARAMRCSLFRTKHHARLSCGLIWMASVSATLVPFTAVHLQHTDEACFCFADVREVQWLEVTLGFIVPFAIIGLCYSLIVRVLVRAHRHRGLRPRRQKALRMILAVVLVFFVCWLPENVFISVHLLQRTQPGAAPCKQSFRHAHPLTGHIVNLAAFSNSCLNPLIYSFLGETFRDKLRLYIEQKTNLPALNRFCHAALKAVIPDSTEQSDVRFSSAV

[2] = biological target: T2, GPER target protein [GPER靶蛋白] (Homo sapiens, UniProt Q99527); assay: Cellular thermal shift analysis (CESTA) with Western blot; format: binding; conditions: 10 μM, 24 h, GPER overexpressing HEK-293T
T2 construct: expressed in transfected cells; host or cells: 293T (HEK-293T), lentiviral recombinant plasmid system
T2 sequence (Q99527 whole entry): as above

[3] = tested on: triple-negative breast cancer MDA-MB-231 cells [三阴性乳腺癌MDA-MB-231细胞]; assay: MTT assay of MDA-MB-231 cell proliferation; format: cell-based; conditions: MDA-MB-231, 24 h
GPER = GPER (Homo sapiens, UniProt Q99527); assay: GPER activity (conclusion, no separate method); format: biochemical
Sequence of GPER (Q99527 whole entry, species assumed): as the sequence (Q99527 whole entry) above

[4] = tested on: retinoid X receptor [类视黄醇X受体]; conditions: cited from earlier work

CC(C)=CCC[C@@H](C(=O)O)[C@H]1[C@H](O)C[C@@]2(C)C3=CC[C@H]4C(C)(C)[C@@H](O)CC[C@]4(C)C3=CC[C@]12C [16α-羟基松苓新酸, 16α-Hydroxydehydrotrametenolic acid]
binding to GPER overexpressing cell line [1]: 能与GPER基因过表达细胞系相结合
binding ability to GPER (CESTA) [2]: 与GPER具有较强的结合能力; also recorded: 结合能力尤为突出
abundance of GPER target protein after heating vs vehicle ([2]; 55 to 70°C): 丰度高于用载体处理的蛋白质的丰度
stability of target protein ([2]; 55 to 70°C): 增加了靶蛋白的稳定性; also recorded: 能促进GPER靶蛋白的热稳定
inhibition of triple-negative breast cancer cell proliferation at 10 μmol/L ([3]; 10 μmol/L): 具有抑制三阴乳腺癌细胞增殖的能力
inhibition of cancer cell proliferation at 40 μmol/L ([3]; 40 μmol/L): 接近最大抑制能力
inhibition of triple-negative breast cancer cell proliferation ([3]; 0.5-100 μmol/L, Fig. 4): 具有显著的抑制三阴乳腺癌细胞增殖的能力
inhibition at 40 μmol/L compared with 100 μmol/L ([3]; 40 vs 100 μmol/L): 和100μmol/L浓度相当
concentration dependence of cancer cell inhibition ([3]; increasing concentration from 10 μmol/L): 抑制癌细胞的能力随浓度增高而增加
GPER activity (GPER): 提高GPER活性
agonism at retinoid X receptor [4]: 天然选择性激动剂
